Experimental data: patent US20210107871A1 (priority 2017, published 2021)

Legend:
Assay type in all cases: cell-based
[1] = system: bundibugyo Ebola virus (pseudotype VSV); assay: microbe, parasite or virus in culture; conditions: read-out: C values
[2] = system: tai forest Ebola virus (pseudotype VSV); assay: microbe, parasite or virus in culture; conditions: read-out: C values
[3] = system: sudan Ebola virus (pseudotype VSV); assay: microbe, parasite or virus in culture; conditions: Sudan ebolavirus, read-out: C values
[4] = system: pseudotype VSV (expressing GFP) having the surface glycoprotein of Ebola virus (zaire sp.); assay: organism not typed; conditions: for IC50: Vero C1008; for activity at 0.02 µM / activity at 0.078 µM / activity at 0.312 µM / activity at 0.625 µM / activity at 1.25 µM / activity at 2.5 µM / activity at 5 µM / activity at 0.005 µM: Vesicular stomatitis virus, Vero C1008, 18 h, read-out: Viral Infection rate (%); for activity at 0.02 µM: Compound Conc. 0.020 μM; for activity at 0.078 µM: Compound Conc. 0.078 μM; for activity at 0.312 µM: Compound Conc. 0.312 μM; for activity at 0.625 µM: Compound Conc. 0.625 μM; for activity at 1.25 µM: Compound Conc. 1.25 μM; for activity at 2.5 µM: Compound Conc. 2.5 μM; for activity at 5 µM: Compound Conc. 5 μM; for activity at 0.005 µM: Compound Conc. 0.005 μM
[5] = system: Marburgvirus (Angola strain) (pseudotype VSV); assay: microbe, parasite or virus in culture; conditions: Orthomarburgvirus, read-out: C values
[6] = system: reston Ebola virus (pseudotype VSV); assay: microbe, parasite or virus in culture; conditions: Reston ebolavirus, read-out: C values

SMILES	IC50 [1]	IC50 [2]	IC50 [3]	IC50 [4]	activity at 0.02 µM [4]	activity at 0.078 µM [4]	activity at 0.312 µM [4]	activity at 0.625 µM [4]	activity at 1.25 µM [4]	activity at 2.5 µM [4]	activity at 5 µM [4]	IC50 [5]	IC50 [6]	activity at 0.005 µM [4]
CCN(CC)CCCN(c1ccc(OC)cc1-c1ccccc1)S(=O)(=O)c1ccccc1 [4-17, N-[3-(diethylamino)propyl]-N-(4-methoxy-2-phenyl-phenyl)benzensulfonamide]	~50 nM	500 to 1000 nM	~300 nM	~50 nM	72.6%	34.6%	1.91%	2.05%	0.2%	0.81%	0.22%	1000 to 5000 nM	~1000 nM	
COc1ccc(N(CC2CCN(C)CC2)S(=O)(=O)c2ccccc2)c(-c2ccccc2)c1 [4-20]	~50 nM	500 to 1000 nM	~300 nM	~50 nM	78.8%	43.7%	4.58%	2.58%	0.23%	0.09%	0.17%	1000 to 5000 nM	~1000 nM	91.8%
CCN1CCC(CN(c2ccc(OC)cc2-c2ccccc2)S(=O)(=O)c2ccccc2)CC1 [4-21]	~50 nM	500 to 1000 nM	~300 nM	~50 nM	64.6%	28.5%	0.75%	0.22%	0.18%	0.12%	0.17%	1000 to 5000 nM	~1000 nM	
COc1ccc(N(CCCN(C)C)S(=O)(=O)c2ccccc2)c(-c2ccccc2)c1 [4-27, N-[3-(dimethylamimo)propyl]-N-(4-methoxy-2-phenyl-phenyl)benzensulfonamide]	~50 nM	500 to 1000 nM	~300 nM	~50 nM	81.5%	45%	3.49%	0.4%	0.18%	0.14%	0.2%	1000 to 5000 nM	~1000 nM	
CCN1CCC(CN(c2ccc(OC)cc2-c2ccccc2F)S(=O)(=O)c2ccccc2)CC1 [4-57, N-[2-(2-fluorophenyl)-4-methoxy-phenyl)-N-(1-ethyl-4-piperidylmethyl)benzensulfonamide]						93.3%	58.2%		1%		0.83%			101%
CCN1CCC(CN(c2ccc(OC)cc2-c2ccccc2)S(=O)(=O)c2cccc(F)c2)CC1 [4-63, 3-fluoro-N-(4-methoxy-2-phenyl-phenyl)-N-(1-ethyl-4-piperidylmethyl)benzensulfonamide]					96.2%	78.2%	34.3%		0.81%		0%			96.7%
CCN(CC)CCCN(c1ccc(OC)cc1-c1ccc(F)cc1)S(=O)(=O)c1ccccc1 [4-68, N-[3-(diethylamino)propyl]-N-[2-(4-fluorophenyl)-4-methoxy-phenyl)benzensulfonamide]							52.8%				0.25%			99.3%
